Results published in paper PMC8379256, “A xanthene derivative, DS20060511, attenuates glucose intolerance by inducing skeletal muscle-specific GLUT4 translocation in mice” (Communications Biology, 2021).
“And” between values parts separate entries of the source, which are not always exact repeats. Identical values can stand only once.

Key:
[1] = system: 3T3-L1-GLUT4myc adipocytes; assay: In vitro cellular 2-DG uptake in 3T3-L1-GLUT4myc adipocytes; format: cell-based; conditions: for Ratio: 2-DG uptake normalized to vehicle; for A - background / A: dpm: 2-DG uptake
Description: (§1) The L6-GLUT4myc rat myoblast cell line was obtained from Dr. Amira Klip and Dr. Philip Bilan, through a license granted by The Hospital for Sick Children, 555 University Avenue, Toronto, Ontario, Canada M5G 1 × 8; or purchased from Kerafast, Boston, MA (ESK202)[43]. The 3T3-L1-GLUT4myc fibroblast cell line was provided by Dr. Tomoyuki Yuasa, Tokushima University[44]. L6-GLUT4myc myoblasts were grown in MEMα (32571036, Thermo Fisher Scientific, Waltham, MA) supplemented with 10% FBS and 1% antibiotics, and then induced to differentiate into myotubes in MEMα supplemented with 2% FBS and 1% antibiotics for 5–8 days. 3T3-L1-GLUT4myc fibroblasts were induced to differentiate into adipocytes as described previously,[45] with minor modifications. Briefly, cells were grown to confluence in growth medium: DMEM (10569010, Thermo Fisher Scientific) supplemented with 10% FBS and 1% antibiotics, and then induced to differentiate into adipocytes in growth medium supplemented with 1 μM dexamethasone, 2 μM rosiglitazone, 0.5 mM isobutylmethylxanthine, and 10 μg mL^−1 insulin for 2 days. The adipocytes were then cultured in growth medium supplemented with 10 μg mL^−1 insulin for a few days before being used for the experiments.
(§2) L6-GLUT4myc myotubes and 3T3-L1-GLUT4myc adipocytes were incubated in the wells of a 24-well plate containing serum-free medium for 3 h at 37 °C and then incubated in glucose-free medium for 30 min at 37 °C. The cells were treated with the indicated concentrations of DS20060511 or insulin for 30 min at 37 °C, followed by the addition of 1 mM 2-deoxy-D-glucose (2-DG) and 0.3 μCi mL^−1 [^3H]-2-DG for 10 min. 2-DG uptake was measured with a liquid scintillation counter (Tri-Carb 2810TR, PerkinElmer, Waltham, MA) and normalized to the level in the vehicle-treated group.

[2] = system: 3T3-L1-GLUT4myc adipocytes; assay: GLUT4 translocation: cell surface GLUT4myc by anti-Myc antibody assay in 3T3-L1-GLUT4myc adipocytes; format: cell-based; conditions: for Ratio: GLUT4 translocation normalized to vehicle; for A - background / A: Abs. (450 nm): GLUT4 translocation; for GLUT4 translocation (in words): differentiated 3T3-L1-GLUT4myc adipocytes, Fig. 1c
Description: as §1
(§3) Cell surface GLUT4 levels in the L6-GLUT4myc myoblasts and myotubes were determined by antibody binding assay as described previously[43],[44], with minor modifications. Briefly, cells in a 96- or 24-well plate were starved in serum-free MEMα (0.1% BSA and 1% antibiotics) for 3 h and then treated with the indicated concentrations of DS20060511 and/or insulin for 30 min at 37 °C. After fixation with 4% paraformaldehyde, the cells were incubated with 1% glycine in PBS at 4 °C for 10 min, and blocked with 10% normal goat serum and 3% BSA in PBS at 4 °C for 30 min. The cells were then incubated with anti-c-Myc antibody (sc-40, 1:500) diluted with blocking buffer at 4 °C for 1 h, washed with cold PBS(+), incubated with HRP-conjugated anti-mouse IgG diluted with blocking buffer at 4 °C for 30 min, and then washed again. SuperSignal ELISA Pico Chemiluminescent Substrate (Thermo Fisher Scientific) was added and the luminescent signal was measured. To investigate GLUT4 translocation in the 3T3-L1-GLUT4myc adipocytes, the cells were prepared in a 24-well plate, and anti-c-Myc antibody (sc-789, 1:1000), HRP-conjugated anti-rabbit IgG and SIGMAFAST OPD regent (Sigma–Aldrich) were added for optical detection of the cell surface GLUT4myc levels. The GLUT4 translocation activity was normalized to that in the vehicle-treated group.

[3] = system: L6-GLUT4myc myotubes; assay: In vitro cellular 2-DG uptake in L6-GLUT4myc myotubes; format: cell-based, rat; conditions: for Ratio: 2-DG uptake normalized to vehicle; for A - background / A: dpm: 2-DG uptake
Description: as §1, §2

[4] = system: L6-GLUT4myc myotubes; assay: GLUT4 translocation: cell surface GLUT4myc by anti-Myc antibody assay in L6-GLUT4myc myotubes; format: cell-based, rat; design: key to GLUT4 translocation: fold of vehicle-treated group; conditions: for Ratio: GLUT4 translocation normalized to vehicle; for A - background / A: Abs. (450 nm): GLUT4 translocation
Description: as §1, §3

What does the source list for “Insulin: Insulin (Humulin, Eli Lilly) in the in vivo experiments; Insulin solution human (I9278, Sigma–Aldrich) in the in vitro experiments”?
Ratio ([1]; Insulin 1 nM): 12.31 and 11.72 and 12.41; Ratio ([1]; Insulin 10 nM): 13.43 and 13.26 and 13.52; Ratio ([1]; Insulin 100 nM): 12.21 and 13.79 and 13.94; A - background ([1]; Insulin 1 nM): 9081 dpm and 9610 dpm and 9537 dpm; A: dpm ([1]; Insulin 1 nM): 9577 dpm and 10106 dpm and 10033 dpm; A - background ([1]; Insulin 10 nM): 10270 dpm and 10470 dpm and 10402 dpm; A: dpm ([1]; Insulin 10 nM): 10766 dpm and 10966 dpm and 10898 dpm; A - background ([1]; Insulin 100 nM): 10682 dpm and 10795 dpm and 9457 dpm; A: dpm ([1]; Insulin 100 nM): 11178 dpm and 11291 dpm and 9953 dpm; 2-DG uptake (in words) ([1]; differentiated 3T3-L1-GLUT4myc adipocytes, Fig. 1e): increase 2-DG uptake; Ratio ([2]; Insulin 1 nM): 1.07 and 1.09 and 1.12; Ratio ([2]; Insulin 10 nM): 1.31 and 1.33 and 1.41; Ratio ([2]; Insulin 100 nM): 1.41 and 1.46 and 1.56; A - background ([2]; Insulin 1 nM): 0.1315 and 0.1345 and 0.1295; A: Abs. (450 nm) ([2]; Insulin 1 nM): 0.215 and 0.218 and 0.213; A - background ([2]; Insulin 10 nM): 0.1605 and 0.1705 and 0.1575; A: Abs. (450 nm) ([2]; Insulin 10 nM): 0.244 and 0.254 and 0.241; A - background ([2]; Insulin 100 nM): 0.1755 and 0.1885 and 0.1705; A: Abs. (450 nm) ([2]; Insulin 100 nM): 0.259 and 0.272 and 0.254; GLUT4 translocation (in words) [2]: increased GLUT4 translocation; Ratio ([3]; Insulin 1 nM): 1.26 and 1.31 and 1.36; Ratio ([3]; Insulin 10 nM): 1.62 and 1.58 and 1.67; Ratio ([3]; Insulin 100 nM): 1.81 and 1.94 and 2.02; A - background ([3]; Insulin 1 nM): 1594 dpm and 1651 dpm and 1530 dpm; A: dpm ([3]; Insulin 1 nM): 1699 dpm and 1756 dpm and 1635 dpm; A - background ([3]; Insulin 10 nM): 1918 dpm and 2031 dpm and 1966 dpm; A: dpm ([3]; Insulin 10 nM): 2023 dpm and 2136 dpm and 2071 dpm; A - background ([3]; Insulin 100 nM): 2363 dpm and 2459 dpm and 2203 dpm; A: dpm ([3]; Insulin 100 nM): 2468 dpm and 2564 dpm and 2308 dpm; Ratio ([4]; Insulin 1 nM): 1.41 and 1.40 and 1.33; Ratio ([4]; Insulin 10 nM): 1.91 and 1.96 and 1.84; Ratio ([4]; Insulin 100 nM): 2.47 and 2.48 and 2.46; A - background ([4]; Insulin 1 nM): 0.111 and 0.106 and 0.112; A: Abs. (450 nm) ([4]; Insulin 1 nM): 0.201 and 0.196 and 0.202; A - background ([4]; Insulin 10 nM): 0.156 and 0.146 and 0.152; A: Abs. (450 nm) ([4]; Insulin 10 nM): 0.246 and 0.236 and 0.242; A - background ([4]; Insulin 100 nM): 0.196 and 0.194 and 0.195; GLUT4 translocation ([4]; Insulin 100 nM, Latrunculin B 0 nM, normalized to vehicle): 3.11 and 3.04 and 3.07; GLUT4 translocation ([4]; Insulin 100 nM, Latrunculin B 10 nM): 3.38 and 3.09 and 3.08; GLUT4 translocation ([4]; Insulin 100 nM, Latrunculin B 30 nM): 2.53 and 2.30 and 2.42; GLUT4 translocation ([4]; Insulin 100 nM, Latrunculin B 100 nM): 2.62 and 2.09 and 2.39; GLUT4 translocation ([4]; Insulin 100 nM, Latrunculin B 200 nM): 2.01 and 1.93

Which results are given for `COc1ccc2c(C)c(C(=O)O)ccc2c1C1C2=C(CC(C)(C)CC2=O)OC2=C1C(=O)CC(C)(C)C2` [DS20060511]?
Ratio ([1]; DS20060511 0.1 μM): 1.50 and 1.09 and 1.18; Ratio ([1]; DS20060511 1 μM): 1.43 and 1.24 and 1.47; Ratio ([1]; DS20060511 10 μM): 1.53 and 1.62 and 1.75; A - background ([1]; DS20060511 0.1 μM): 846 dpm and 912 dpm and 1164 dpm; A: dpm ([1]; DS20060511 0.1 μM): 1342 dpm and 1408 dpm and 1660 dpm; A - background ([1]; DS20060511 1 μM): 957 dpm and 1138 dpm and 1108 dpm; A: dpm ([1]; DS20060511 1 μM): 1453 dpm and 1634 dpm and 1604 dpm; A - background ([1]; DS20060511 10 μM): 1255 dpm and 1357 dpm and 1185 dpm; A: dpm ([1]; DS20060511 10 μM): 1751 dpm and 1853 dpm and 1681 dpm; Ratio ([2]; DS20060511 0.1 μM): 0.99 and 1.02 and 1.06; Ratio ([2]; DS20060511 1 μM): 0.93 and 1.02 and 0.98; Ratio ([2]; DS20060511 10 μM): 0.96 and 1.08 and 1.04; A - background ([2]; DS20060511 0.1 μM): 0.1225 and 0.1275 and 0.1195; A: Abs. (450 nm) ([2]; DS20060511 0.1 μM): 0.206 and 0.211 and 0.203; A - background ([2]; DS20060511 1 μM): 0.1225 and 0.1175 and 0.1115; A: Abs. (450 nm) ([2]; DS20060511 1 μM): 0.206 and 0.201 and 0.195; A - background ([2]; DS20060511 10 μM): 0.1305 and 0.1255 and 0.1155; A: Abs. (450 nm) ([2]; DS20060511 10 μM): 0.214 and 0.209 and 0.199; GLUT4 translocation (in words) [2]: almost no effect on GLUT4 translocation; Ratio ([3]; DS20060511 0.1 μM): 1.12 and 1.13 and 1.11; Ratio ([3]; DS20060511 1 μM): 1.53 and 1.44 and 1.45; Ratio ([3]; DS20060511 10 μM): 1.59 and 1.82 and 1.79; A - background ([3]; DS20060511 0.1 μM): 1376 dpm and 1354 dpm and 1361 dpm; A: dpm ([3]; DS20060511 0.1 μM): 1481 dpm and 1459 dpm and 1466 dpm; A - background ([3]; DS20060511 1 μM): 1752 dpm and 1767 dpm and 1863 dpm; A: dpm ([3]; DS20060511 1 μM): 1857 dpm and 1872 dpm and 1968 dpm; A - background ([3]; DS20060511 10 μM): 2208 dpm and 2181 dpm and 1933 dpm; A: dpm ([3]; DS20060511 10 μM): 2313 dpm and 2286 dpm and 2038 dpm; 2-DG uptake (in words) ([3]; L6-GLUT4myc myotubes, Fig. 1d): significantly increased 2-DG uptake in a concentration-dependent manner; GLUT4 translocation on co-treatment with insulin ([4]; 30 μM DS20060511 plus insulin, also at saturating insulin concentration, Fig. 4e): additive increase of GLUT4 translocation; GLUT4 translocation ([4]; DS20060511 30 μM, Latrunculin B 0 nM, normalized to vehicle): 1.94 and 1.98 and 1.81; GLUT4 translocation ([4]; DS20060511 30 μM, Latrunculin B 10 nM): 2.29 and 2.23 and 2.10; GLUT4 translocation ([4]; DS20060511 30 μM, Latrunculin B 30 nM): 1.81 and 2.08 and 1.91; GLUT4 translocation ([4]; DS20060511 30 μM, Latrunculin B 100 nM): 2.37 and 2.30 and 2.39; GLUT4 translocation ([4]; DS20060511 30 μM, Latrunculin B 200 nM): 2.39 and 2.15 and 2.06; Ratio ([4]; DS20060511 0.1 μM): 1.26 and 1.33; Ratio ([4]; DS20060511 1 μM): 1.71 and 1.72 and 1.90; Ratio ([4]; DS20060511 10 μM): 2.15 and 2.14 and 2.27; A - background ([4]; DS20060511 0.1 μM): 0.100 and 0.106; A - background ([4]; DS20060511 1 μM): 0.137 and 0.151 and 0.136; A: Abs. (450 nm) ([4]; DS20060511 1 μM): 0.227 and 0.241 and 0.226; A - background ([4]; DS20060511 10 μM): 0.170 and 0.180 and 0.171; A: Abs. (450 nm) ([4]; DS20060511 10 μM): 0.260 and 0.270 and 0.261; GLUT4 translocation (in words) ([4]; differentiated L6-GLUT4myc myotubes, Fig. 1b): increased GLUT4 translocation in differentiated L6-GLUT4myc myotubes in a concentration-dependent manner
